Consider twelve molecules from ChEMBL document CHEMBL3826904, “Ionic liquid-promoted multicomponent synthesis of fused tetrazolo[1,5-a]pyrimidines as α-glucosidase inhibitors” (Bioorg Med Chem Lett, 2016).

For experiment [1], the target named is Alpha-glucosidase MAL12 (Saccharomyces cerevisiae S288c) (UniProt P53341). As to the kind of experiment: Inhibition of yeast alpha-glucosidase MAL12 at 5 mM using 4-nitrophenyl-alpha-D-glucopyranoside as substrate preincubated for 30 mins followed by substrate addition measured after 10 mins by microplate reader analysis.
In experiment [2] the target is T1, Pancreatic alpha-amylase (Homo sapiens) (UniProt P04746).
T1 sequence (whole entry): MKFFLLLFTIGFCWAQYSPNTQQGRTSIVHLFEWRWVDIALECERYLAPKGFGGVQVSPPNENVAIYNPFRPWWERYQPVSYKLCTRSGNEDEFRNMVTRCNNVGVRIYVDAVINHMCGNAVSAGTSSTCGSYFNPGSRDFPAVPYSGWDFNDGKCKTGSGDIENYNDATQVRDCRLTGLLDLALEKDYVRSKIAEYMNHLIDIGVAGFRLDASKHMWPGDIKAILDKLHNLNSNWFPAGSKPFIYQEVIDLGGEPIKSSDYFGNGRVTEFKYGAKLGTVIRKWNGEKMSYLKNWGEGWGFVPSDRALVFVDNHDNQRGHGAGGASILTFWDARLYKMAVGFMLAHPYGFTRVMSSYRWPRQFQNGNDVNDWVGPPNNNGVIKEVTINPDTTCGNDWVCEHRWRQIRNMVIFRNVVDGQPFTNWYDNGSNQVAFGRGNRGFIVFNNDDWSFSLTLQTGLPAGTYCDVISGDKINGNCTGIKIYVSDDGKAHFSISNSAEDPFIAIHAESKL
Nature of the experiment: Inhibition of pancreatic alpha-amylase (unknown origin) at 5 mM using starch as substrate preincubated for 30 mins followed by substrate addition measured after 10 mins by dinitrosalicylic acid method based microplate reader analysis.

The target of experiment [3] is Alpha-glucosidase MAL12 (Saccharomyces cerevisiae S288c, UniProt P53341). Nature of the experiment: Inhibition of yeast alpha-glucosidase MAL12 using 4-nitrophenyl-alpha-D-glucopyranoside as substrate preincubated for 30 mins followed by substrate addition measured after 10 mins by microplate reader analysis.

Active and inactive are the calls of the source. The calls are words filed in the database; no cut-off is given here.

Alpha-glucosidase MAL12, sequence (P53341 whole entry): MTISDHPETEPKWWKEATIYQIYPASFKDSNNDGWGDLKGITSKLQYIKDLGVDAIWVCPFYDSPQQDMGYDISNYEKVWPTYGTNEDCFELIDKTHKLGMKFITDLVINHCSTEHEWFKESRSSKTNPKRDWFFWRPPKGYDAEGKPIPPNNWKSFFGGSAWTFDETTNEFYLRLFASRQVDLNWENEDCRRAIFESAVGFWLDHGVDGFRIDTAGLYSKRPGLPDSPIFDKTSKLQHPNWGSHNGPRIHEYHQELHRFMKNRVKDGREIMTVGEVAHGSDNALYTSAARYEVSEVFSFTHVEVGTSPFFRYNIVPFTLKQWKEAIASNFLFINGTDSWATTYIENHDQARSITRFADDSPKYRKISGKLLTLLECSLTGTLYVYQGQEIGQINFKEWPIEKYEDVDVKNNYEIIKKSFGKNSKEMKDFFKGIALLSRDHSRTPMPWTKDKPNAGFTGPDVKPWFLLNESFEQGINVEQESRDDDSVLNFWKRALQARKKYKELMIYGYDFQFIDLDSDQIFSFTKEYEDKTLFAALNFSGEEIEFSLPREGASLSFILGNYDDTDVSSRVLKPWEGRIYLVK
Alpha-glucosidase MAL12 (Saccharomyces cerevisiae S288c), sequence (P53341 whole entry): as above

Turning to `Brc1ccc(-c2ccnc3nnnn23)cc1`, the inhibition result in experiment [1] is “Active”. The inhibition result in experiment [2] is “inactive”.
One may read the IC50 as the concentration at which inhibition is half-maximal. `Fc1ccc(-c2ccnc3nnnn23)cc1`: the inhibition result in experiment [1] was “Active”. The inhibition entry in experiment [2] is “inactive”. In addition, the IC50 in experiment [3] is 178 µM.
On the same counts, the results for `COc1ccc(-c2ccnc3nnnn23)cc1` are “Active”, “inactive” and 85.7 µM.
On the same counts, the results for `c1ccc(-c2ccnc3nnnn23)cc1` are “Active”, “inactive” and 422 µM.
In the case of `c1ccc(-c2ccnc3nnnn23)nc1`, the inhibition entry in experiment [1] was “Active”. For the same molecule, the inhibition entry in experiment [2] was “inactive”. Further, in experiment [3], inhibition was half-maximal at 591 µM (IC50).
On the same counts, the results for `Cc1ccc(-c2ccnc3nnnn23)cc1` are “Active”, “inactive” and 49.8 µM.
On the same counts, the results for `Oc1ccccc1-c1ccnc2nnnn12` are “Active”, “inactive” and 1740 µM.
For the molecule `O=[N+]([O-])c1ccc(-c2ccnc3nnnn23)cc1`, the inhibition entry in experiment [1] is “Active”. Also, in experiment [2], the inhibition result is “inactive”. Further, the IC50 in experiment [3] is 308 µM.
On to `Clc1ccc(-c2ccnc3nnnn23)cc1`, for which the inhibition result in experiment [1] was “Active”. Further, the inhibition result in experiment [2] is “inactive”. In experiment [3], this molecule had a concentration for half-maximal inhibition (IC50) of 421 µM.
`c1ccc2oc(-c3ccnc4nnnn34)cc2c1`: the inhibition result in experiment [1] is “Active”. Also, in experiment [2], the inhibition entry was “inactive”.
With `O=c1oc2ccccc2cc1-c1ccnc2nnnn12`, the inhibition entry in experiment [1] was “Active”. Moreover, in experiment [2], the inhibition result was “inactive”. This molecule also showed an IC50 in experiment [3] of 446 µM.
For the molecule `c1csc(-c2ccnc3nnnn23)c1`, the inhibition result in experiment [1] was “Active”. Besides, the inhibition result in experiment [2] is “inactive”. In experiment [3], the IC50 was 1010 µM.
